# Results: patent US5426099A, “Process for inducing analgesia, peptides and therapeutic compositions” (Rutgers, The State University of New Jersey, priority 1991, dated 1995)
# “Also recorded” adds a separate entry of the source. Where no end group is shown, it is not given here.
# Assays:
# [1] = tested on: smooth muscle; assay: Smooth muscle relaxant action
# [2] = tested on: female Sprague-Dawley rats; assay: Vocalization threshold to tail shock; type: in vivo, rat; conditions: intrathecal; for elevation in vocalization threshold: 30 min. postinjection; for vocalization threshold compared with saline group (significance): sulfate
# From the text: Electrical stimulation (100 millisecond trains of 60 Hz square waveform at three-second intervals ranging from 0.01 to 0.4 mA in 0.01 mA increments) is applied (under computer control using a Commodore 64C computer and a Coulbourn constant current stimulator) to the surface of the tail via two lengths of blunt 18-ga stainless steel tubing coated with conductive gel (Spectra 360 Electrode Gel; Parker Laboratories Inc., Orange, N.J. 07050) and taped to the midsection of the tail 2 cm apart, parallel to the axis of the tail. An ascending/descending method of limits is used to estimate the threshold (in mA) to induce vocalization. In this method, an observer records whether or not vocalization occurs in response to each shock. If an animal vocalizes at a particular current intensity, the current intensity is then reduced stepwise until a shock no longer elicits a vocalization response. Then the current is increased stepwise until the animal again vocalizes, and so on, until all mA values for 6 such inversions are obtained. The vocalization threshold estimate is the mean of these 6 values.
# The vocalization threshold to tail shock increased by 70% over baseline (pre-injection) levels by the first minute after the intrathecal injection of VIP 11-28 (molar quantity equivalent to 25 mcg VIP 11-28, hereafter referred to as 25 mcge [microgram equivalents]).
# Female Sprague-Dawley rats weighing 250 g are used in the testing. The rats are ovariectomized and implanted surgically through the cisterna magna with an intrathecal catheter (i.t.) (PE 10 polyethylene tubing 7.5 cm length) at least 1 week before testing.
# [3] = tested on: female Sprague-Dawley rats; assay: Tail-flick latency to radiant heat
# [4] = tested on: female Sprague-Dawley rats; assay: Vocalization threshold to tail shock; type: in vivo, rat; conditions: intravenous, 3 mg
# [5] = tested on: pit. tumor cells; conditions: Westendorf+ 83; cited from earlier work
# [6] = tested on: arterial cells; set-up: key: + = Stimulation; - = Inhibition; conditions: Huang+ 84; cited from earlier work
# [7] = tested on: brain arteries; conditions: Suzuki+ 84; cited from earlier work
# [8] = set-up: key: + = Stimulation; - = Inhibition; conditions: Pandol+ 86; cited from earlier work
# [9] = tested on: skin; set-up: key: + = Stimulation; - = Inhibition; conditions: Yanaihara+ 87; cited from earlier work
# [10] = tested on: gastric mucosa; set-up: key: + = Stimulation; - = Inhibition; conditions: Sutliff+ 86; cited from earlier work
# [11] = tested on: genital tract; set-up: key: + = Stimulation; - = Inhibition; conditions: Fahrenkrug+ 88; cited from earlier work
# [12] = tested on: trachea; conditions: Said, Mutt+ 77; cited from earlier work
# [13] = tested on: uterus; conditions: Morris+ 89; cited from earlier work
# [14] = tested on: dienceph. cells; set-up: key: + = Stimulation; - = Inhibition; conditions: Reichlin 88; cited from earlier work
# [15] = tested on: ovarian granulosa; set-up: key: + = Stimulation; - = Inhibition; conditions: cited from earlier work
# [16] = tested on: cortical slices; set-up: key: + = Stimulation; - = Inhibition; conditions: Magistretti+ 84; cited from earlier work
# [17] = tested on: Schwann cell; conditions: Evans+; cited from earlier work
# [18] = tested on: stomach; conditions: Said, Mutt+ 77; cited from earlier work
# [19] = tested on: heart; set-up: key: + = Stimulation; - = Inhibition; conditions: Smitherman+ 88; cited from earlier work
# [20] = tested on: brain (amygdala); set-up: key: + = Stimulation; - = Inhibition; conditions: Quik+ 79; cited from earlier work
# [21] = tested on: colonic cells; set-up: key: + = Stimulation; - = Inhibition; conditions: McCabe+ 88; cited from earlier work
# [22] = tested on: eye; set-up: key: + = Stimulation; - = Inhibition; conditions: cited from earlier work
# [23] = tested on: bronchi; conditions: Palmer+ 86; cited from earlier work
# [24] = tested on: spinal cord cult.; set-up: key: + = Stimulation; - = Inhibition; conditions: Brenneman 88; cited from earlier work
# [25] = tested on: systemic; set-up: key to cardiac output / blood pressure / arterial blood flow: + = Stimulation; - = Inhibition; conditions: Said, cited from earlier work
# [26] = tested on: pancreatic cells; set-up: key: + = Stimulation; - = Inhibition; conditions: Robberecht+ 76; cited from earlier work
# [27] = tested on: lumbo-sacral spinal cord; conditions: administered to rats to the intrathecal space of the lumbo-sacral spinal cord; Komisaruk et al. 1988; cited from earlier work
# [28] = tested on: colon; set-up: key: + = Stimulation; - = Inhibition; conditions: cited from earlier work
# [29] = tested on: brain (IV vent.); set-up: key: + = Stimulation; - = Inhibition; conditions: Drucker-Colin+ 88; cited from earlier work
# [30] = tested on: vagina; set-up: key: + = Stimulation; - = Inhibition; conditions: Fahrenkrug+ 88; cited from earlier work
# [31] = intrathecal injection; Cridland and Henry 1988; cited from earlier work
# [32] = tested on: kidney; set-up: key: + = Stimulation; - = Inhibition; conditions: Porter+ 88; cited from earlier work
# [33] = reported; cited from earlier work
# [34] = tested on: periaqueductal gray matter; conditions: administered to rats directly into the periaqueductal gray matter; Sullivan and Pert 1981; cited from earlier work
# [35] = tested on: mononuclear cells; set-up: key: + = Stimulation; - = Inhibition; conditions: Ottaway+ 83; cited from earlier work
# [36] = tested on: pancreatic acini; set-up: key: + = Stimulation; - = Inhibition; conditions: Musso+ 88; cited from earlier work
compound,measurement,setting,value
"TRLRKQMAVKKYLNSILN-NH2 [VIP 11-28, NH--Thr--Arg--Leu--Arg--Lys--Gln--Met--Ala--Val--Lys--Lys--Tyr--Leu--Asn--Ser--Ile--Leu--Asn--Amide]",smooth muscle relaxant action,[1],has shown smooth muscle relaxant action
same,elevation in vocalization threshold,[2]; 25 mcge,170%
same,"vocalization threshold to tail shock, increase over baseline (pre-injection) levels","[2]; 25 mcge, first minute after injection, n=10",70%
same,persistence of the significant threshold elevating effect,"[2]; 25 mcge, vocalization threshold",≥ 60 min
same,vocalization threshold elevation compared with 25 mcg morphine sulfate (significance),"[2]; 25 mcge, at 1-15, 30 and 60 min. postinjection, p<0.05",significantly greater than both the morphine and the saline groups; also recorded: significantly more effective in elevating vocalization thresholds than 25 mcg morphine sulfate
same,vocalization threshold compared with saline control group (significance),"[2]; 25 mcge, p<0.05, 2-tailed, multiple t-tests",elevated over the saline control group levels at each test for the duration of the 60 min. test period
same,persistence of threshold elevating effect longer than analgesia produced by VIP 1-28,[2]; vocalization threshold,at least 30 min.
same,onset of analgesia post i.t. injection,[2]; vocalization threshold test,1 min
same,TFL change compared with saline group (significance),"[3]; intrathecal, 25 mcge, p<0.05, two-tailed, multiple t-test",significantly greater than the saline group
same,"mean TFL elevation, maximum, greater than the preinjection baseline level","[3]; intravenous (jugular vein catheter), 3 mg, 1 minute after injection, n=10",80%
same,TFL compared with saline control group (significance),"[3]; intravenous, 3 mg, p<0.05, 2-tailed, Scheffe test",significantly greater effect than saline
same,time of maximum vocalization threshold after injection,[4],1 min
same,vocalization threshold compared with saline (significance),[4],"approached, but did not reach, significance; also recorded: approaching, but not attaining, significance"
"CC[C@H](C)[C@H](NC(=O)[C@H](CO)NC(=O)[C@H](CC(N)=O)NC(=O)[C@H](CC(C)C)NC(=O)[C@H](Cc1ccc(O)cc1)NC(=O)[C@H](CCCCN)NC(=O)[C@H](CCCCN)NC(=O)[C@@H](NC(=O)[C@H](C)NC(=O)[C@H](CCSC)NC(=O)[C@H](CCC(N)=O)NC(=O)[C@H](CCCCN)NC(=O)[C@H](CCCNC(=N)N)NC(=O)[C@H](CC(C)C)NC(=O)[C@H](CCCNC(=N)N)NC(=O)[C@@H](NC(=O)[C@H](Cc1ccc(O)cc1)NC(=O)[C@H](CC(N)=O)NC(=O)[C@H](CC(=O)O)NC(=O)[C@@H](NC(=O)[C@H](Cc1ccccc1)NC(=O)[C@@H](NC(=O)[C@H](C)NC(=O)[C@H](CC(=O)O)NC(=O)[C@H](CO)NC(=O)[C@@H](N)Cc1c[nH]cn1)C(C)C)[C@@H](C)O)[C@@H](C)O)C(C)C)C(=O)N[C@@H](CC(C)C)C(=O)N[C@@H](CC(N)=O)C(N)=O [VIP 1-28, NH--His--Ser--Asp--Ala--Val--Phe--Thr--Asp--Asn--Tyr--Thr--Arg--Leu--Arg--Lys--Gln--Met--Ala--Val--Lys--Lys--Tyr--Leu--Asn--Ser--Ile--Leu--Asn--Amide]","ACTH, endorphin release",[5],"ACTH, endorphin release"
same,adenylate cyclase,[6],+
same,vasodilation,[7],30
same,amylase release,[8],+
same,hair growth,[9],+
same,cyclic Amp,[10],+
same,pepsinogen secretion,[10],+
same,blood flow,[11],+
same,smooth muscle relaxation,[12],smooth muscle relaxation
same,arterial relaxation,[13],arterial relaxation
same,somatostatin release,[14],+
same,androgen secretion,[15]; Johnson 88,+
same,progesterone secretion,[15]; Johnson+ 88,+
same,glycogenolypis,[16],+
same,neuronal hyperpolarization,[17],neuronal hyperpolarization
same,smooth muscle relaxation,[18],smooth muscle relaxation
same,blood flow,[19],+
same,cyclic AMP,[20],+
same,chloride secretion,[21],+
same,tear secretion,[22]; Gilbard+ 88,+
same,intraocular pressure,[22]; Mittag+ 87,-
same,bronchodilation,[23],bronchodilation
same,neuronal survival,[24],+
same,cardiac output,[25]; Mutt 75,+
same,hyperglycemia,[25]; Mutt 75,hyperglycemia
same,respiratory stimulation,[25]; Mutt 75,respiratory stimulation
same,arterial blood flow,[25]; Mutt+ 77,+
same,blood pressure,[25]; Mutt+ 77,-
same,cyclic AMP,[26],+
same,analgesia through the central nervous system,[27],induced analgesia
same,smooth muscle motility,"[28]; Said, Mutt+ 77",+
same,water flow,[28]; Waldman+ 77,+
same,REM sleep,[29],+
same,lubrication,[30],+
same,reaction time on a nociceptive test,[31],reduced reaction time
same,TFL elevation compared with saline group (significance),"[3]; intrathecal, VIP 1-28 group","approached, but did not reach, significance"
same,renin secretion rate,[32],+
same,systemic vasodilator activity,[33],has systemic vasodilator activity
same,analgesia through the central nervous system,[34],induced analgesia
same,cyclic AMP,[35],+
same,amylase release,[36],+
CN1CC[C@]23c4c5ccc(O)c4O[C@H]2[C@@H](O)C=C[C@H]3[C@H]1C5.O=S(=O)(O)O [morphine sulfate],elevation in vocalization threshold,[2]; 25 mcg,60%
same,vocalization threshold compared with saline group (significance),"[2]; 25 mcg, p<0.05, listed as morphine",significantly greater than the saline group
same,vocalization threshold compared with saline group (significance),"[2]; 25 mcg, p<0.05",significant elevation in vocalization threshold over the saline group at 20 and 30 min. post injection
same,TFL compared with other groups (significance),"[3]; intrathecal, 5 mcg",significantly greater than saline at 15 min. and all other groups except morphine 25 mcg at all points from 30-60 min.
same,TFL compared with other groups (significance),"[3]; intrathecal, 25 mcg, p<0.05, two-tailed, Duncan test",significantly greater than all other groups at all points from 5-60 minutes
